Results published in US20210236467A1, “DANTROLENE FORMULATIONS AND METHODS OF THEIR USE” (EAGLE PHARMACEUTICALS, INC., priority 2018, published 2021).
Converted amounts (≈) assume the structure as drawn.

Columns and labels:
[1] = Effective pH determination (10-fold dilution of non-aqueous sample in water); assay type: physicochemical; conditions: for effective pH of 10 mg/mL samples in PEG400: Example 3, target 10 mg/mL in PEG400, 10-fold dilution in water, ratios acid:sodium by volume; for pH of the supernatant (effective pH): 10-fold dilution in water
Description: The pH of the supernatant was measured by making a 10-fold dilution of the supernatant in water.
The effective pH of the supernatant was measured by making a 10-fold dilution of the supernatant in water.
The effective pH of the dantrolene acid supernatant and dantrolene sodium sample was measured by making 10-fold dilutions in water, per the methods described elsewhere herein.
The effective pH of each sample was measured by making 10F dilutions in water. The pH values were recorded as follows—
Effective pH measurements were conducted at ambient room temperature, using a Thermo Scientific Orion Star A111 pH benchtop meter. The instrument was calibrated within one day of the effective pH measurement using phosphate buffers at pH 4, 7, and 10 (Hydrion Tri-Chek Buffer Capsule set).
Samples were prepared by diluting the non-aqueous/anhydrous sample 10 fold with water. The diluted sample was vortexed for about 10 to 15 seconds. Effective pH was measured using the pre-calibrated pH benchtop meter, directly after vortexing.
After each effective pH measurement, the pH bulb was rinsed with an appropriate rinse solution to remove the entire test sample from the bulb.

[2] = Precipitation on dilution/addition of water; assay type: physicochemical
[3] = Solubility / concentration determination by UPLC of supernatant; assay type: physicochemical; conditions: organic solvent or mixture, thermodynamic from solid; saturated supernatant, room temperature, propylene glycol
Description: (§1) 11.2 mgs of dantrolene acid was added to 224 uL of PEG400. […] The tube was centrifuged for 5 min at 15,000 rpm at room temperature to separate the sample into supernatant (dantrolene acid in solution) and pellet (insoluble material). The supernatant was transferred into a clean tube and diluted 100-, 200- and 400-fold in 25% acetonitrile for analysis by UPLC as described below.
as §1, with “16.3” for “11.2”, “326” for “224”, “propylene glycol.” for “PEG400.”, “50-, 100-” for “100-, 200-”, “200-fold” for “400-fold”, “below. The solubility of dantrolene acid in propylene glycol was calculated as ˜0.8 mg/mL.” for “below.”
13.0 mgs of dantrolene acid was dissolved in 1.3 mL of PEG400, targeting 10 mg/mL dantrolene acid. […]
Analysis was performed using an Agilent UPLC System equipped with a diode array detector and an Agilent C18 Zorbax column. Samples were analyzed using a gradient method with mobile phase A containing 0.1% trifluoroacetic acid in water and mobile phase B containing 0.1% trifluoroacetic acid in acetonitrile. […] A 10 uL sample was injected and the analytes were detected by UV at 385 nm. […] Peak areas were determined by manual integration. […]

[4] = Dissolution and solution stability by visual inspection; assay type: physicochemical; conditions: for dissolution on visual inspection: target 10 mg/mL in PEG400, after vortexing
Description: 13.0 mgs of dantrolene acid was dissolved in 1.3 mL of PEG400, targeting 10 mg/mL dantrolene acid. 12.7 mgs of dantrolene sodium was dissolved in 1.27 mL of PEG400, targeting 10 mg/mL of dantrolene sodium. […] Both tubes were centrifuged for 5 min at 3,900 rpm at room temperature to separate the sample into supernatant (dantrolene acid or dantrolene sodium in solution) and pellet (insoluble material). […] The supernatant of the dantrolene acid sample was transferred into a clean tube. The dantrolene acid supernatant and the dantrolene sodium solution were diluted 100- and 200-fold in 25% acetonitrile for analysis on the UPLC as described below.
(§2) Dantrolene sodium (6.4 mg) was weighed into a glass vial and propylene glycol (0.128 mL) was added, using a positive displacement pipette to achieve a target concentration of 50 mg/mL of dantrolene sodium. The contents of the vials were mixed with a positive displacement pipette. Visual inspection confirmed that the solutions were clear. The sample was a stable solution for at about 2 days at room temperature, after which time, precipitate formed. The precipitate was 99.9% dantrolene, as determined using HPLC.
as §2, with “(6.2” for “(6.4”, “PEG400 (0.124” for “propylene glycol (0.128”, “that” for “that the”

[5] = cited from earlier work
[6] = pH of aqueous slurry of dantrolene sodium; assay type: physicochemical; conditions: 43.5 mg in 43.5 mL of water
Description: 43.5 mgs of dantrolene sodium was slurried in 43.5 mL of water in a conical tube. The pH of the initial of the slurry was 9.89.

effective pH of 10 mg/mL samples in PEG400 [1]	pH of the supernatant (effective pH) ([1]; PEG400 supernatant)	pH of the supernatant (effective pH) ([1]; propylene glycol supernatant)	behaviour of the 10-fold dilution in water ([2]; PEG400 supernatant)	behaviour of the 10-fold dilution in water ([2]; propylene glycol supernatant)	solubility [3] [µg/mL]	dissolution on visual inspection [4]	effect of addition of 50 μL of water ([2]; 50 mg/mL in PEG400 (0.124 mL))	effect of addition of 50 μL of water ([2]; 50 mg/mL in propylene glycol (0.128 mL))	pH of the initial slurry [6]	time as stable solution before precipitate formed ([4]; 50 mg/mL in PEG400, room temperature)	time as stable solution before precipitate formed ([4]; 50 mg/mL in propylene glycol, room temperature)	visual inspection of solution ([4]; target 50 mg/mL in PEG400)	visual inspection of solution ([4]; target 50 mg/mL in propylene glycol)	Structure (SMILES)	solubility in water [5]
4.95	4.88	5.73	precipitated out quickly	precipitated out slowly	~800 (≈ 2550 µM)	cloudy after vortexing	–	–	–	–	–	–	–	O=C1CN(/N=C/c2ccc(-c3ccc([N+](=O)[O-])cc3)o2)C(O)=N1 [dantrolene acid, 1-{[5-(4-nitrophenyl)-2-furyl]methylideneamino}imidazolidine-2,4-dione]	very poorly soluble in water
9.67	–	–	–	–	–	completely dissolved	precipitation	precipitation	9.89	about 2 days	about 2 days	clear	clear	O=C1CN(/N=C/c2ccc(-c3ccc([N+](=O)[O-])cc3)o2)C(O)=N1 [dantrolene sodium]	–
